This is an account of results in patent publication US20060286625A1, “Rapid enrichment for Listeria” (Kraft Foods Holdings, Inc., priority 2005, published 2006).

The test concerns environmental isolates. Description: Effect of Polymyxin B, Acriflavine HCl and Ceftazidime on environmental isolates. The test is classed as cell-based. The note with it: used together in the Selective medium. Here is the method: Nineteen non-Listeria organisms isolated from environmental sponges from meat and dairy manufacturing facilities were inoculated separately into Tryptic Soy broth (TSB, Difco) and incubated for 24 h at 30° C. The isolates were screened for growth in Selective and Non-Selective media by monitoring absorbance via a spectrophotometer. 900 μl of test media and either 100 μl of culture or Butterfield's Buffer (International BioProducts) were added to a cuvette and incubated at 30° C. Absorbance readings were taken at 660 nm on a spectrophotometer (Shimadzu UV160U) at To, 2 h, 4 h, and 6 h and compared to the corresponding blank cuvette with buffer. Growth was scored by absorbance readings.
The Non-Selective medium consisted of Universal Preenrichment Broth (UPB, Difco) with 0.4% Yeast Extract (YE, Difco). The Selective medium consisted of Universal Preenrichment Broth (UPB, Difco) with 0.4% Yeast Extract (YE, Difco), 0.001% Polymymin B, 0.0005% Acriflavine HCl, and 0.002% Ceftazidime.
Several environmental organisms screened via spectrophotometer were selected to test in mixed culture with Listeria. Environmental isolates were inoculated separately into TSB and incubated for 24 h at 30° C. The growth level was determined by serial dilutions plated on Tryptic Soy agar (TSA, Difco) and incubated at 30° C. for 24 h. Based on the cell counts, the culture was diluted in Butterfield's Buffer and a volume of the diluted culture targeting an initial cell count of 1000 CFU/mL was inoculated into the test media.
30 mL of Non-Selective or Selective medium was added to 10 ml of Butterfield's Buffer to simulate the addition of media to environment sponge. A Non-Selective and Selective medium was inoculated with Listeria culture alone, environmental isolate alone, and Listeria and environment isolate combined. The media were incubated in a water bath at 30° C. Serial dilutions of inoculated media were collected at To and 8 h and plated on Oxford Media Base and a differential media particular to the environmental isolate being tested (see Table 2). […]
For `CC(C)(O/N=C(\C(=O)N[C@@H]1C(=O)N2C(C(=O)[O-])=C(C[n+]3ccccc3)CS[C@H]12)c1csc(N)n1)C(=O)O` [Ceftazidime], the “Effectiveness as selective agents against environmental isolates (in words)” value is “effective selective agents against many environmental isolates”.
For the molecule Polymyxin B, the “Effectiveness as selective agents against environmental isolates (in words)” value is listed as “effective selective agents against many environmental isolates”.
For Acriflavine HCl the value was “effective selective agents against many environmental isolates”.
